In brackets after ≈: the same amount, converted by molar mass. Activity calls are given as the source filed them. No cut-off for these calls is given here.

One data set deals with Acinetobacter baumannii. Put plainly: Antibacterial activity against Acinetobacter baumannii assessed as inhibition of bacterial growth. Type of data set: functional.
For data set [1], the system named is Pseudomonas aeruginosa. Put plainly: Antibacterial activity against Pseudomonas aeruginosa assessed as inhibition of bacterial growth. Type of data set: functional.
Another data set deals with Clostridium tetani. In words: Antibacterial activity against Clostridium tetani assessed as inhibition of bacterial growth. Type of data set: functional.
Data set [2] concerns Pseudomonas aeruginosa. In words: Antibacterial activity against Pseudomonas aeruginosa ATCC 10145 assessed as inhibition of bacterial growth measured for 16 to 20 hrs by microdilution assay. Type of data set: functional. The conditions noted are these: time 16-20 hrs.
Data set [3] has as its system Staphylococcus aureus. In words: Antibacterial activity against Staphylococcus aureus ATCC 6538 assessed as reduction in microbial growth measured for 16 to 20 hrs by microdilution assay. The class given is functional. The conditions noted are these: time 16-20 hrs.
Data set [4] relates to Staphylococcus aureus. In words: Antibacterial activity against Staphylococcus aureus ATCC 25923 assessed as reduction in microbial growth measured for 16 to 20 hrs by microdilution assay. To be noted: time 16-20 hrs. Type of data set: functional.
Data set [5] concerns Klebsiella pneumoniae. Put plainly: Antibacterial activity against Klebsiella pneumoniae ATCC 700603 assessed as inhibition of bacterial growth measured for 16 to 20 hrs by microdilution assay. Type of data set: functional. The conditions noted are these: time 16-20 hrs.
Data set [6] deals with Staphylococcus aureus. In words: Anti-biofilm activity in Staphylococcus aureus ATCC 6538 assessed as inhibition of biofilm formation at 128 uM measured for 24 hrs by MTT assay. The class given is functional. Further details: scale not given: the % may be the effect or the level left.
For data set [7], the system named is Staphylococcus epidermidis. In words: Antibacterial activity against Staphylococcus epidermidis ATCC 35984 assessed as reduction in microbial growth measured for 16 to 20 hrs by microdilution assay. The conditions noted are these: time 16-20 hrs. Type of data set: functional.
A short description of data set [8]: Metabolic stability in human liver microsome assessed as intrinsic clearance at 5 uM incubated for 1 hr in presence of NADPH regenerating system and GSH by LC-UV analysis. The class given is ADME. To be noted: liver microsomes, read-out: CLH.
For data set [9], the system named is Staphylococcus aureus. Put plainly: Additive antibacterial activity against methicillin-resistant Staphylococcus aureus assessed as fractional inhibitory concentration index in presence of ciprofloxacin by checker board method. Type of data set: functional.
Data set [10] in a line: Metabolic stability in human plasma assessed as parent compound remaining at 50 uM incubated for 60 mins by LC-UV analysis. The conditions noted are these: read-out: Stability. The class given is ADME, cell-free.
For data set [11], the system named is Osteoblast. In words: Cytotoxicity against human Osteoblast cells assessed as reduction in cell viability measured at 64 to 128 uM measured for 24 hrs by MTT assay. The class given is toxicity, cell-based. The conditions noted are these: dose 64-128 µM.
The subject of data set [12] is HaCaT. In words: Cytotoxicity against human HaCaT cells assessed as reduction in cell viability measured at 64 to 128 uM measured for 24 hrs by MTT assay. To be noted: dose 64-128 µM. Type of data set: toxicity, cell-based.
For data set [13], the system named is Staphylococcus epidermidis. Put plainly: Antibacterial activity against Staphylococcus epidermidis ATCC 49134 assessed as reduction in microbial growth measured for 16 to 20 hrs by microdilution assay. Type of data set: functional. The conditions noted are these: time 16-20 hrs.
Data set [14] concerns Staphylococcus aureus. Put plainly: Bactericidal activity against methicillin-resistant Staphylococcus aureus ATCC 43300 incubated for 24 hrs by time kill assay. Type of data set: functional.
Data set [15] deals with Staphylococcus aureus. In words: Bactericidal activity against methicillin-resistant Staphylococcus aureus ATCC 43300 measured for 24 hrs by time kill assay. Type of data set: functional, organism-based.
Data set [16] relates to Staphylococcus aureus. In words: Antibacterial activity against methicillin-resistant Staphylococcus aureus ATCC 43300 assessed as reduction in microbial growth measured for 16 to 20 hrs by microdilution assay. Type of data set: functional. The conditions noted are these: time 16-20 hrs.
Data set [17] deals with Staphylococcus aureus. Put plainly: Induction of cell membrane permeability in Staphylococcus aureus ATCC 6538. Type of data set: functional, organism-based.
The subject of data set [18] is Staphylococcus aureus. Put plainly: Anti-biofilm activity in Staphylococcus aureus ATCC 6538 assessed as inhibition of biofilm formation upto 128 uM measured for 24 hrs by MTT assay. Type of data set: functional, organism-based.
Data set [19] in a line: Metabolic stability in rat liver microsome assessed as parent compound remaining at 50 uM incubated for 1 hr in presence of NADPH regenerating system and GSH by LC-UV analysis. The class given is ADME. To be noted: liver microsomes, read-out: Stability.
Data set [20] relates to Staphylococcus epidermidis. Put plainly: Antibacterial activity against Staphylococcus epidermidis ATCC 12228 assessed as reduction in microbial growth measured for 16 to 20 hrs by microdilution assay. Type of data set: functional. The conditions noted are these: time 16-20 hrs.
The subject of data set [21] is Staphylococcus aureus. Put plainly: Antibacterial activity against methicillin-resistant Staphylococcus aureus ATCC 43300 assessed as reduction in microbial growth by microdilution assay. Type of data set: functional.
For data set [22], the system named is Staphylococcus aureus. In words: Additive antibacterial activity against methicillin-resistant Staphylococcus aureus assessed as fractional inhibitory concentration index in presence of tetracycline by checker board method. The class given is functional.
Data set [23] in a line: Metabolic stability in human liver microsome assessed as parent compound remaining at 50 uM incubated for 1 hr in presence of NADPH regenerating system and GSH by LC-UV analysis. The class given is ADME. To be noted: liver microsomes, read-out: Stability.
For data set [24], the system named is Osteoblast. Put plainly: Cytotoxicity against human Osteoblast cells assessed as reduction in cell viability measured at 128 uM measured for 24 hrs by MTT assay. The class given is toxicity, cell-based.
Data set [25] can be described thus: Metabolic stability in human liver microsome assessed as half life at 5 uM incubated for 1 hr in presence of NADPH regenerating system and GSH by LC-UV analysis. Type of data set: ADME. The conditions noted are these: liver microsomes.
Data set [26] deals with Staphylococcus aureus. Put plainly: Antibacterial activity against Staphylococcus aureus ATCC 6538 assessed as reduction in cell surface hydrophobicity. Type of data set: functional, organism-based.
The subject of a further data set is Escherichia coli. Put plainly: Antibacterial activity against Escherichia coli ATCC 25922 assessed as inhibition of bacterial growth measured for 16 to 20 hrs by microdilution assay. The class given is functional. To be noted: time 16-20 hrs.
For data set [27], the system named is Staphylococcus aureus. Put plainly: Anti-biofilm activity in Staphylococcus aureus ATCC 6538 assessed as inhibition of biofilm formation at 16 uM measured for 24 hrs by MTT assay. Further details: scale not given: the % may be the effect or the level left. Type of data set: functional.
The test system of data set [28] is Staphylococcus aureus. In words: Resistance development in methicillin-resistant Staphylococcus aureus ATCC 43300 assessed as fold increase in MIC after 10 passage. Type of data set: functional.
Data set [29] deals with Staphylococcus aureus. In words: Antibacterial activity against methicillin-resistant Staphylococcus aureus ATCC 33592 assessed as reduction in microbial growth measured for 16 to 20 hrs by microdilution assay. Type of data set: functional. To be noted: time 16-20 hrs.
Data set [30] relates to Staphylococcus aureus. Put plainly: Antibacterial activity against Staphylococcus aureus ATCC 29213 assessed as reduction in microbial growth measured for 16 to 20 hrs by microdilution assay. The class given is functional. The conditions noted are these: time 16-20 hrs.
For data set [31], the system named is HaCaT. In words: Cytotoxicity against human HaCaT cells assessed as reduction in cell viability measured at 128 uM measured for 24 hrs by MTT assay. The class given is toxicity, cell-based.
Data set [32] concerns Klebsiella pneumoniae. Put plainly: Antibacterial activity against Klebsiella pneumoniae assessed as inhibition of bacterial growth. The class given is functional.
Another data set deals with Bacillus anthracis. Put plainly: Antibacterial activity against Bacillus anthracis assessed as inhibition of bacterial growth. The class given is functional.
Data set [33] relates to Staphylococcus aureus. In words: Antibacterial activity against Staphylococcus aureus assessed as inhibition of bacterial growth. Type of data set: functional.
Data set [34] concerns Clavibacter michiganensis. In words: Antibacterial activity against Clavibacter michiganensis assessed as inhibition of bacterial growth. The class given is functional.

Take `[C-]#[N+]C(=C\c1ccc(O)cc1)/C(=C/c1ccc(O)cc1)[N+]#[C-]` [XANTOCILLIN]: the minimal inhibitory concentration (MIC) is 0.25 µM (≈ 0.0721 µg/mL) in the data set on Acinetobacter baumannii, 0.69 µM (≈ 0.199 µg/mL) in the data set with Pseudomonas aeruginosa [1] and 0.69 µM (≈ 0.199 µg/mL) in the data set on Clostridium tetani.

For the molecule `[C-]#[N+]c1ccc(NC(=O)Cc2cccc(Cl)c2)cc1`, the MIC in the data set with Pseudomonas aeruginosa [2] is not below 64 µM; in the data set with Staphylococcus aureus [3], 8 µM; with Staphylococcus aureus [4] it was 2 µM; in the data set with Klebsiella pneumoniae [5], not below 64 µM; in data set [7], 0.25 µM; in [13], 0.25 µM. For the same molecule, the MIC was 4 µM in the data set on Staphylococcus aureus [16]; 0.5 µM in data set [20]; 4 µM in the data set on Staphylococcus aureus [21]; not below 64 µM in the data set with Escherichia coli; 4 µM in the data set with Staphylococcus aureus [29]; 8 µM in the data set with Staphylococcus aureus [30]. Besides, the Activity in the data set with Staphylococcus aureus [6] is given as 94%; in the data set with Osteoblast [11] it was “Non-Toxic”; in the data set on HaCaT [12], “Non-Toxic”; in the data set with Staphylococcus aureus [14] it was “>=99.9%”; in the data set with Osteoblast [24], more than 70%; with Staphylococcus aureus [27], 10%. The microsomal CLint at 5 µM in data set [8] is 24.4 µL/min/mg. Moreover, the “fractional inhibitory concentration index (FICI)” value in the data set on Staphylococcus aureus [9] and with Staphylococcus aureus [22] was 0.75 throughout. The remaining at 1 h, 50 µM in data set [10] is more than 99%; in data set [19], 53%; in data set [23], 82%. Further, the outcome in the data set on Staphylococcus aureus [15] and in the data set with Staphylococcus aureus [17] was Active. Further, the result with Staphylococcus aureus [18] and in the data set on Staphylococcus aureus [26] was inactive. In addition, in [25], the half-life at 5 µM worked out at 26.2 min. The “fold change (FC)” value with Staphylococcus aureus [28] is recorded as more than 4.

Consider `[C-]#[N+]c1ccc(NC(=O)COc2ccccc2)cc1`, for which the MIC in the data set with Pseudomonas aeruginosa [2] is not below 64 µM; in the data set on Staphylococcus aureus [3], 8 µM; in the data set on Staphylococcus aureus [4] it was 2 µM; in the data set with Klebsiella pneumoniae [5], not below 64 µM; in [7], 0.25 µM; in data set [13], 0.25 µM. In addition, the MIC in the data set on Staphylococcus aureus [16] is 2 µM; in [20], 0.5 µM; with Staphylococcus aureus [21], 4 µM; with Escherichia coli, not below 64 µM; in the data set with Staphylococcus aureus [29], 4 µM; in the data set with Staphylococcus aureus [30], 8 µM. Further, the Activity in the data set with Staphylococcus aureus [6] is listed as 94%; with Osteoblast [11], “Non-Toxic”; in the data set on HaCaT [12], “Non-Toxic”; in the data set on Staphylococcus aureus [14], “>=99.9%”; in the data set on Osteoblast [24], more than 70%; with HaCaT [31] it was less than 70%. The Activity in the data set with Staphylococcus aureus [27] turned out to be 10%. In addition, the result in the data set on Staphylococcus aureus [15] and in the data set on Staphylococcus aureus [17] was Active. In addition, the outcome in the data set with Staphylococcus aureus [18] and with Staphylococcus aureus [26] was inactive. The “fractional inhibitory concentration index (FICI)” value with Staphylococcus aureus [22] was found to be 0.75. Moreover, the “fold change (FC)” value in the data set with Staphylococcus aureus [28] is listed as more than 4.

For `[C-]#[N+]/C(Cl)=C/C1(OC(C)=O)C(=O)Nc2ccccc21` (configuration not stated), the minimum inhibitory concentration (MIC) in the data set with Klebsiella pneumoniae [32] turned out to be 0.7 µM (≈ 0.194 µg/mL); with Bacillus anthracis, 0.7 µM (≈ 0.194 µg/mL); with Staphylococcus aureus [33], 0.18 µM (≈ 0.0498 µg/mL).

`[C-]#[N+]C(=C\c1ccc(O)cc1)/C(=C/c1ccc2c(c1)CCC(C)(C)O2)[N+]#[C-]`: in data set [34], the MIC was 0.87 µM (≈ 0.31 µg/mL).

Values taken from ChEMBL document CHEMBL5352456, “Isocyanides in med chem: A scaffold hopping approach for the identification of novel 4-isocyanophenylamides as potent antibacterial agents against methicillin-resistant Staphylococcusaureus” (Eur J Med Chem, 2023).
